In patent US12281080B2, “Quinoline-based compounds and methods of inhibiting CDK8/19” (University of South Carolina, priority 2018, dated 2025):

Columns and labels:
MLK3 (MAP3K11) = MLK3 (MAP3K11) (Homo sapiens (Human), UniProt Q16584); experiment: KINOMEscan scanMAX; format: binding; conditions: 2000 nM; read-out: Percent Control
ULK3 = ULK3 (Homo sapiens (Human), UniProt Q6PHR2); experiment: KINOMEscan scanMAX; format: binding; conditions: 2000 nM; read-out: Percent Control
SGK (SGK1) = SGK (SGK1) (Homo sapiens (Human), UniProt O00141); experiment: KINOMEscan scanMAX; format: binding; conditions: 2000 nM; read-out: Percent Control
Chain of SGK (SGK1) (O00141 whole entry): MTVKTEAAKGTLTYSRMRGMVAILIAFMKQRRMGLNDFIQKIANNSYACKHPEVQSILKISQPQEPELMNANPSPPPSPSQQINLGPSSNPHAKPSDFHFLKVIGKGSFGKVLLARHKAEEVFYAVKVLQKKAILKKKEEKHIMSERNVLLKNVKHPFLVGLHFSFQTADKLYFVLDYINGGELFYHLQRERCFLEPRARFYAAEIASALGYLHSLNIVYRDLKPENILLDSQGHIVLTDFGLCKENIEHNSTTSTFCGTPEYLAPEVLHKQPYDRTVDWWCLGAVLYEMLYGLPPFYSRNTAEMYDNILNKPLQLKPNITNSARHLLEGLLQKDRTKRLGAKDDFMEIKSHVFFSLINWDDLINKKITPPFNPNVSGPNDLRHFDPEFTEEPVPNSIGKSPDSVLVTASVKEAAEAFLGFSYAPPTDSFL

MST2 (STK3) = MST2 (STK3) (Homo sapiens (Human), UniProt Q13188); experiment: KINOMEscan scanMAX; format: binding; conditions: 2000 nM; read-out: Percent Control
PFTAIRE2 (CDK15) = PFTAIRE2 (CDK15) (Homo sapiens (Human), UniProt Q96Q40); experiment: KINOMEscan scanMAX; format: binding; conditions: 2000 nM; read-out: Percent Control
CTK (MATK) = CTK (MATK) (Homo sapiens (Human), UniProt P42679); experiment: KINOMEscan scanMAX; format: binding; conditions: 2000 nM; read-out: Percent Control
EGFR(L858R) = EGFR(L858R) (Homo sapiens (Human), UniProt P00533, L858R); experiment: KINOMEscan scanMAX; format: binding; conditions: 2000 nM; read-out: Percent Control
Chain of EGFR(L858R) (P00533 25-1210 L858R): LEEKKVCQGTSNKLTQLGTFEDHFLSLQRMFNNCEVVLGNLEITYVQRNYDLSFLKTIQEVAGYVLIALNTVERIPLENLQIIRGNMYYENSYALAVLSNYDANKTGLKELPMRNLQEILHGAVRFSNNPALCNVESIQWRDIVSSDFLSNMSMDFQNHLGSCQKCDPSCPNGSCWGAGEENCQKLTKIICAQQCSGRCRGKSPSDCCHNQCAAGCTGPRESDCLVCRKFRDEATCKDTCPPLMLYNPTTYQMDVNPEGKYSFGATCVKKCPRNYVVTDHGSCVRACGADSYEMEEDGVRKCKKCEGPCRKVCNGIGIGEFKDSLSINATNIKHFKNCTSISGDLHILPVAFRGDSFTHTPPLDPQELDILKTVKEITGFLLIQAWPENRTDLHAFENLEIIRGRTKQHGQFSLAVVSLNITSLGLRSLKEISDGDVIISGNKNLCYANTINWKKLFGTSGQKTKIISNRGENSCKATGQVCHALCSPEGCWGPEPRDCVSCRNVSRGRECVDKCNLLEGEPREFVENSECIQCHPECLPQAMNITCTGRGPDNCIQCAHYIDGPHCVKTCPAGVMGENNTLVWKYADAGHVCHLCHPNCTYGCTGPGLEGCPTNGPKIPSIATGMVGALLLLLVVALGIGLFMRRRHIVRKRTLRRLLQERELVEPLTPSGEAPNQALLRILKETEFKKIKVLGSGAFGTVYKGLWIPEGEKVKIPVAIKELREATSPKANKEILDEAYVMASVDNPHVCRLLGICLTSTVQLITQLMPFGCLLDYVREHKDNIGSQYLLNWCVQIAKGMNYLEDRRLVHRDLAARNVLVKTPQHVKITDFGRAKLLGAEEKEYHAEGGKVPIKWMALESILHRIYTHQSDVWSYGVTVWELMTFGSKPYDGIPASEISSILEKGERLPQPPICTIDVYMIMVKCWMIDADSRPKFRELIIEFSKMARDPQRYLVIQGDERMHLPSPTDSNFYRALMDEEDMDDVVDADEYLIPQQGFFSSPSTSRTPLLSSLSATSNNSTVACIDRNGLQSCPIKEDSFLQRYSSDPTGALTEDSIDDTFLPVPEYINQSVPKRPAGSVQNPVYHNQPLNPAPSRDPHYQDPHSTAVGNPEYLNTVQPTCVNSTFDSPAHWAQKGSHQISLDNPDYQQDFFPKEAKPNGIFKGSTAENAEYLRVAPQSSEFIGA

NEK6 = NEK6 (Homo sapiens (Human), UniProt Q9HC98); experiment: KINOMEscan scanMAX; format: binding; conditions: 2000 nM; read-out: Percent Control
PKAC-beta (PRKACB) = PKAC-beta (PRKACB) (Homo sapiens (Human), UniProt P22694); experiment: KINOMEscan scanMAX; format: binding; conditions: 2000 nM; read-out: Percent Control
FLT3(R834Q) = FLT3(R834Q) (Homo sapiens (Human), UniProt P36888, R834Q); experiment: KINOMEscan scanMAX; format: binding; conditions: 2000 nM; read-out: Percent Control
ERK1 (MAPK3) = ERK1 (MAPK3) (Homo sapiens (Human), UniProt P27361); experiment: KINOMEscan scanMAX; format: binding; conditions: 2000 nM; read-out: Percent Control
DCAMKL3 (DCLK3) = DCAMKL3 (DCLK3) (Homo sapiens (Human), UniProt Q9C098); experiment: KINOMEscan scanMAX; format: binding; conditions: 2000 nM; read-out: Percent Control
CHEK2 = CHEK2 (Homo sapiens (Human), UniProt O96017); experiment: KINOMEscan scanMAX; format: binding; conditions: 2000 nM; read-out: Percent Control
[1] = tested on: 468 human kinases and disease relevant mutant variants; experiment: KINOMEscan scanMAX panel, whole panel; format: binding; conditions: 2,000 nM; CDK2, 3, 4, 5, 7, 9, 11A, 11B, 13, 14, 15, 16, 17, 18, CDKL1, CDKL3, CDKL5
[2] = Metabolic stability in human hepatocytes; format: in vitro ADME; conditions: 2 μM, 37° C.
ACVR1 = ACVR1 (Homo sapiens (Human), UniProt Q04771); experiment: KINOMEscan scanMAX; format: binding; conditions: 2000 nM; read-out: Percent Control
Chain of ACVR1 (Q04771 21-509): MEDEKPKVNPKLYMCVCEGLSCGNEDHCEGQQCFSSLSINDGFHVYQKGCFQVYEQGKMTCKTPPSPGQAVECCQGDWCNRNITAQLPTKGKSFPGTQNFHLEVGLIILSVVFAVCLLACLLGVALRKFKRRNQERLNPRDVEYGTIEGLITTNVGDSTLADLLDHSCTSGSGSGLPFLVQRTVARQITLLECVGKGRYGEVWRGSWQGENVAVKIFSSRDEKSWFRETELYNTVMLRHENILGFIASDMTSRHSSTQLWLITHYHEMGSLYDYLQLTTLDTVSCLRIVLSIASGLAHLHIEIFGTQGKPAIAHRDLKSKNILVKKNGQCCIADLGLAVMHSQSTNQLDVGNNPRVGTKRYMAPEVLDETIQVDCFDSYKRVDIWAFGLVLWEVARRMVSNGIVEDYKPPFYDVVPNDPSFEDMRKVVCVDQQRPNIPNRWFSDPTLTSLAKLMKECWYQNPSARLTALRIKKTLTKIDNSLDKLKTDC

CDKL1 = CDKL1 (Homo sapiens (Human), UniProt Q00532); experiment: KINOMEscan scanMAX; format: binding; conditions: 2000 nM; read-out: Percent Control
GAK = GAK (Homo sapiens (Human), UniProt O14976); experiment: KINOMEscan scanMAX; format: binding; conditions: 2000 nM; read-out: Percent Control
PIK3C2G = PIK3C2G (Homo sapiens (Human), UniProt O75747); experiment: KINOMEscan scanMAX; format: binding; conditions: 2000 nM; read-out: Percent Control
NEK3 = NEK3 (Homo sapiens (Human), UniProt P51956); experiment: KINOMEscan scanMAX; format: binding; conditions: 2000 nM; read-out: Percent Control
Chain of NEK3 (P51956 whole entry): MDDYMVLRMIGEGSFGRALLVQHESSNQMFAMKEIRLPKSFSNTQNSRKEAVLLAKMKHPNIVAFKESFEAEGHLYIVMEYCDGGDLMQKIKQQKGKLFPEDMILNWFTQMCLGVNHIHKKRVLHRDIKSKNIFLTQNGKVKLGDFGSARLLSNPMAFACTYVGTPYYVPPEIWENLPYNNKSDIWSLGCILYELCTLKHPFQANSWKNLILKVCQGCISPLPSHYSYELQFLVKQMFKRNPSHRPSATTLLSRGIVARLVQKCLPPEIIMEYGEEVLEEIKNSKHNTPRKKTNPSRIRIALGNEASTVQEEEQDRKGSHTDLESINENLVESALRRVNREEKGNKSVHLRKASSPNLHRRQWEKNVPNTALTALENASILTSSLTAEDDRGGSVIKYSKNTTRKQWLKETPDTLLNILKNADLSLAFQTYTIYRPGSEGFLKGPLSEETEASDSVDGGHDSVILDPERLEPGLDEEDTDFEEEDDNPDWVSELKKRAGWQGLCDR

JNK1 (MAPK8) = JNK1 (MAPK8) (Homo sapiens (Human), UniProt P45983); experiment: KINOMEscan scanMAX; format: binding; conditions: 2000 nM; read-out: Percent Control
ACVR1B = ACVR1B (Homo sapiens (Human), UniProt P36896); experiment: KINOMEscan scanMAX; format: binding; conditions: 2000 nM; read-out: Percent Control
TYRO3 = TYRO3 (Homo sapiens (Human), UniProt Q06418); experiment: KINOMEscan scanMAX; format: binding; conditions: 2000 nM; read-out: Percent Control
CDK7 = CDK7 (Homo sapiens (Human), UniProt P50613); experiment: KINOMEscan scanMAX; format: binding; conditions: 2000 nM; read-out: Percent Control
ALK(L1196M) = ALK(L1196M) (Homo sapiens (Human), UniProt Q9UM73, L1196M); experiment: KINOMEscan scanMAX; format: binding; conditions: 2000 nM; read-out: Percent Control
PIP5K1C = PIP5K1C (Homo sapiens (Human), UniProt O60331); experiment: KINOMEscan scanMAX; format: binding; conditions: 2000 nM; read-out: Percent Control
CDKL3 = CDKL3 (Homo sapiens (Human), UniProt Q8IVW4); experiment: KINOMEscan scanMAX; format: binding; conditions: 2000 nM; read-out: Percent Control
Chain of CDKL3 (Q8IVW4 whole entry): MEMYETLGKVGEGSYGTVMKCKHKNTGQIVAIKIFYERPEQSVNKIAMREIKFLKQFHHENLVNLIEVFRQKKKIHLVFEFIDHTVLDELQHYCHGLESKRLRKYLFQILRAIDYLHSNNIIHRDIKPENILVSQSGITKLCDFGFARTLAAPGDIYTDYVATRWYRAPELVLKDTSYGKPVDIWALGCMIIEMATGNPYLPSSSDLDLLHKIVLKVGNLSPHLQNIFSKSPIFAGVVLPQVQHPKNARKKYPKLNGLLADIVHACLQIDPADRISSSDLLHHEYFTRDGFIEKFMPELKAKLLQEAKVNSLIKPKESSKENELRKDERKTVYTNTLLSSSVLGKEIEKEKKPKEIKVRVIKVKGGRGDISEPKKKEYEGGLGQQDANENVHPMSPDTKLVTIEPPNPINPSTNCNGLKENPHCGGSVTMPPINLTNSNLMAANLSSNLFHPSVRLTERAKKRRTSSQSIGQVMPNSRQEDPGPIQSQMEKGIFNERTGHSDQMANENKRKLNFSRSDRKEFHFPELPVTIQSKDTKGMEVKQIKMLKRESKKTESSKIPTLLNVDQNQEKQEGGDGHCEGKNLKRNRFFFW

TIE2 (TEK) = TIE2 (TEK) (Homo sapiens (Human), UniProt Q02763); experiment: KINOMEscan scanMAX; format: binding; conditions: 2000 nM; read-out: Percent Control
GSK3A = GSK3A (Homo sapiens (Human), UniProt P49840); experiment: KINOMEscan scanMAX; format: binding; conditions: 2000 nM; read-out: Percent Control
YES (YES1) = YES (YES1) (Homo sapiens (Human), UniProt P07947); experiment: KINOMEscan scanMAX; format: binding; conditions: 2000 nM; read-out: Percent Control
MYO3B = MYO3B (Homo sapiens (Human), UniProt Q8WXR4); experiment: KINOMEscan scanMAX; format: binding; conditions: 2000 nM; read-out: Percent Control
MAP4K5 = MAP4K5 (Homo sapiens (Human), UniProt Q9Y4K4); experiment: KINOMEscan scanMAX; format: binding; conditions: 2000 nM; read-out: Percent Control
Chain of MAP4K5 (Q9Y4K4 whole entry): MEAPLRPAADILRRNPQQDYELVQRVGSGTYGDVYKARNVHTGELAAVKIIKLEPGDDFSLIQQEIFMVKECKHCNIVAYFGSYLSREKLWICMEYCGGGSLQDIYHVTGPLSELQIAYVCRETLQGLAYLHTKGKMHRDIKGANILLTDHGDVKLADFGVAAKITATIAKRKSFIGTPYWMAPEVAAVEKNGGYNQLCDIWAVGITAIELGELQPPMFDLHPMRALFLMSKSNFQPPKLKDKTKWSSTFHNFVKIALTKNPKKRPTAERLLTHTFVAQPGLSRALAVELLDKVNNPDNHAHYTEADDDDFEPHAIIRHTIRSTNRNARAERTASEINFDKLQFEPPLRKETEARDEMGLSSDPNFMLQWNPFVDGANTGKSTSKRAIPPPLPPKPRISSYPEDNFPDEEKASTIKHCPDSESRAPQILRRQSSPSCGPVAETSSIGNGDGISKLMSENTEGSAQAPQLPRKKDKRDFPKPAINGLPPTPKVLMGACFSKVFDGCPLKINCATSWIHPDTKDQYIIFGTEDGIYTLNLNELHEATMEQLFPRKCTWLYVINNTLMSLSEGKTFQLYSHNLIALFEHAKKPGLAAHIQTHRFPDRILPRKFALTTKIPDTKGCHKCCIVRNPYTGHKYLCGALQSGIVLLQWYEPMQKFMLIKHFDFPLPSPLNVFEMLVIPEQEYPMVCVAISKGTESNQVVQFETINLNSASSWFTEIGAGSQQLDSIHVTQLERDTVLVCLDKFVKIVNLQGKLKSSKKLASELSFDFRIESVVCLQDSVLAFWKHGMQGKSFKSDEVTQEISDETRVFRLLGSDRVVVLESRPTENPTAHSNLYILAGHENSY

CLK3 = CLK3 (Homo sapiens (Human), UniProt P49761); experiment: KINOMEscan scanMAX; format: binding; conditions: 2000 nM; read-out: Percent Control
DLK (MAP3K12) = DLK (MAP3K12) (Homo sapiens (Human), UniProt Q12852); experiment: KINOMEscan scanMAX; format: binding; conditions: 2000 nM; read-out: Percent Control
Chain of DLK (MAP3K12) (Q12852 whole entry): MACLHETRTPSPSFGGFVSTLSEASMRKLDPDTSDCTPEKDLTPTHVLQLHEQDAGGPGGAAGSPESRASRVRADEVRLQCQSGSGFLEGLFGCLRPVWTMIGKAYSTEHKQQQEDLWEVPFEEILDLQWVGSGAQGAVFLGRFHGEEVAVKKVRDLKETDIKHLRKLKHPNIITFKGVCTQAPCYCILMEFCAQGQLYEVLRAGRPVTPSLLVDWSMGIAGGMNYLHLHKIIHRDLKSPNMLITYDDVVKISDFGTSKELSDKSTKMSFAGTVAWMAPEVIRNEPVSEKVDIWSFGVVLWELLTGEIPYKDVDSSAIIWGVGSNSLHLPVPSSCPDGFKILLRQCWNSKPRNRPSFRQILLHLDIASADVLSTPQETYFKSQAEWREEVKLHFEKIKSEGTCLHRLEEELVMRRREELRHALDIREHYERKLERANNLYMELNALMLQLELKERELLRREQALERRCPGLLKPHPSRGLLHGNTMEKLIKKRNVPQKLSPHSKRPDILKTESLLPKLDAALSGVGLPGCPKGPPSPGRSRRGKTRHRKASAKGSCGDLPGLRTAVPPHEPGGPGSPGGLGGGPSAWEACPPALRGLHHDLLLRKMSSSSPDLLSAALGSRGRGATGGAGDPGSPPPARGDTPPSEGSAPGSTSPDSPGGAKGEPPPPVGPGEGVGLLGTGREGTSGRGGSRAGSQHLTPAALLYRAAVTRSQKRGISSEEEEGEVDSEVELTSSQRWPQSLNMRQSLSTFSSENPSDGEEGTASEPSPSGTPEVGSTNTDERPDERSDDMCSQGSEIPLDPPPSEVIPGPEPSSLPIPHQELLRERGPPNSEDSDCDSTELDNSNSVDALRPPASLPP

FGFR3(G697C) = FGFR3(G697C) (Homo sapiens (Human), UniProt P22607, G697C); experiment: KINOMEscan scanMAX; format: binding; conditions: 2000 nM; read-out: Percent Control
[3] = biological target: RSK1(Kin.Dom.1-N-terminal) (RPS6KA1) (Homo sapiens (Human), UniProt Q15418); experiment: KINOMEscan scanMAX; format: binding; conditions: 2000 nM; read-out: Percent Control

## CN1CCN(C(=O)c2ccc3cc(CCNc4ccnc5ccc(C#N)cc45)ccc3c2)CC1 [compound 6148, 4-((2-(6-(4-methylpiperazine-1-carbonyl)naphthalen-2-yl)ethyl)amino)quinoline-6-carbonitrile]
MLK3 (MAP3K11)
  remaining binding at 2 µM: 99%
ULK3
  remaining binding at 2 µM: 70%
SGK (SGK1)
  remaining binding at 2 µM: 50%
MST2 (STK3)
  remaining binding at 2 µM: 100%
PFTAIRE2 (CDK15)
  remaining binding at 2 µM: 100%
CTK (MATK)
  remaining binding at 2 µM: 56%
EGFR(L858R)
  remaining binding at 2 µM: 93%
NEK6
  remaining binding at 2 µM: 93%
PKAC-beta (PRKACB)
  remaining binding at 2 µM: 100%
FLT3(R834Q)
  remaining binding at 2 µM: 70%
ERK1 (MAPK3)
  remaining binding at 2 µM: 95%
DCAMKL3 (DCLK3)
  remaining binding at 2 µM: 96%
CHEK2
  remaining binding at 2 µM: 98%
[1]
  POC of the other members of the CDK family in the scanMAX panel: ≥ 64 POC
[2]
  Metabolic conversion rate in cultured hepatocytes: greatly decreased relative to Senexin B
ACVR1
  remaining binding at 2 µM: 92%
CDKL1
  remaining binding at 2 µM: 94%
GAK
  remaining binding at 2 µM: 100%
PIK3C2G
  remaining binding at 2 µM: 57%
NEK3
  remaining binding at 2 µM: 60%
JNK1 (MAPK8)
  remaining binding at 2 µM: 54%
ACVR1B
  remaining binding at 2 µM: 92%
TYRO3
  remaining binding at 2 µM: 77%
CDK7
  remaining binding at 2 µM: 69%
ALK(L1196M)
  remaining binding at 2 µM: 92%
PIP5K1C
  remaining binding at 2 µM: 87%
CDKL3
  remaining binding at 2 µM: 87%
TIE2 (TEK)
  remaining binding at 2 µM: 89%
GSK3A
  remaining binding at 2 µM: 94%
YES (YES1)
  remaining binding at 2 µM: 100%
MYO3B
  remaining binding at 2 µM: 31%
MAP4K5
  remaining binding at 2 µM: 95%
CLK3
  remaining binding at 2 µM: 65%
DLK (MAP3K12)
  remaining binding at 2 µM: 68%
FGFR3(G697C)
  remaining binding at 2 µM: 93%
[3]
  remaining binding at 2 µM: 91%
